Consider 9 compounds from PubChem BioAssay (NCI).

Among the test systems are SK-MEL-5 melanoma; T-47D breast; NCI-H23 lung; HL-60(TB) leukemia; SR leukemia; SF-295 CNS; U251 CNS; COLO 205 colon; BT-549 breast; K-562 leukemia.
Holding throughout (assay): NCI anticancer screen, dose series, 48 h

Values joined by “and” are separate entries in the source; they are usually repeats but may differ in a detail not shown here. Equal values may be shown once.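 Tested at 5 concentrations; 48 h exposure; 96-well plates; endpoints linearly interpolated, else capped at highest concentration. Here, GI50 denotes the concentration required for 50% inhibition of growth. TGI marks complete inhibition of growth.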 Bounds are passed on as bounds.

On to `COc1cccc(Nc2nc3ccccc3c3occc23)c1`, for which the GI50 in the experiment with SK-MEL-5 melanoma was 6160 nM; with T-47D breast, 4100 nM; in the experiment on NCI-H23 lung, 10200 nM; in the experiment on HL-60(TB) leukemia, 45000 nM; in the experiment on SR leukemia it was 21200 nM; in the experiment with SF-295 CNS it was 3920 nM. Also, the GI50 is 9680 nM with U251 CNS, 9490 nM in the experiment on COLO 205 colon, 10400 nM with BT-549 breast and 6270 nM in the experiment on K-562 leukemia. In addition, the TGI with SK-MEL-5 melanoma is 20900 nM; with T-47D breast it was 22800 nM; with NCI-H23 lung it was 22600 nM; in the experiment on HL-60(TB) leukemia it was greater than 100000 nM; with SR leukemia, 95000 nM; in the experiment with SF-295 CNS, 14600 nM. Besides, the TGI in the experiment with U251 CNS was 27100 nM; in the experiment with COLO 205 colon it was 22000 nM; with BT-549 breast it was 23000 nM; with K-562 leukemia it was greater than 100000 nM.
Consider `CCN(Cc1cccc(Cl)c1)c1ccc(CO)c(Cl)c1`, for which the GI50 with SK-MEL-5 melanoma is 5730 nM; in the experiment with T-47D breast, 205 nM; in the experiment on NCI-H23 lung it was 7510 nM; in the experiment on HL-60(TB) leukemia it was 3930 nM; in the experiment on SR leukemia it was 16900 nM; in the experiment on SF-295 CNS, 1120 nM. The GI50 in the experiment on U251 CNS was 1090 nM; in the experiment with COLO 205 colon it was 2430 nM; in the experiment on BT-549 breast it was 11500 nM; in the experiment with K-562 leukemia it was 1650 nM. In addition, the TGI with SK-MEL-5 melanoma came out at 19900 nM; in the experiment with T-47D breast, 1140 nM; in the experiment with NCI-H23 lung, 23700 nM; with HL-60(TB) leukemia, 20900 nM; in the experiment on SR leukemia, 39900 nM; in the experiment on SF-295 CNS, 13800 nM. Also, the TGI with U251 CNS was 14600 nM; in the experiment with COLO 205 colon it was 7530 nM; in the experiment with BT-549 breast it was 24300 nM; with K-562 leukemia, greater than 50000 nM.
In the case of `O=C1C=CC(=O)c2c(O)c3c(c(O)c21)C[C@H](O)[C@H](O)[C@@H]3O`, the TGI is 3180 nM in the experiment with SK-MEL-5 melanoma; 4000 nM in the experiment with T-47D breast; 4670 nM in the experiment on NCI-H23 lung; 2900 nM in the experiment on HL-60(TB) leukemia; greater than 100000 nM with SR leukemia; 20300 nM with SF-295 CNS. Moreover, the TGI in the experiment with U251 CNS is 16300 nM; with COLO 205 colon, 1120 nM; in the experiment with BT-549 breast, 2810 nM; in the experiment with K-562 leukemia, greater than 21200 nM.
Consider `CC(=O)[C@H]1CCC/C=C/[C@@H]2C[C@H](O)C[C@H]2[C@H](O)/C=C/C(=O)O1`, for which the GI50 in the experiment with SK-MEL-5 melanoma is 163 nM; in the experiment on T-47D breast, 1170 nM; in the experiment with NCI-H23 lung, 527 nM; with HL-60(TB) leukemia it was 261 nM; in the experiment with SR leukemia, 313 nM; in the experiment with SF-295 CNS it was 4330 nM. Besides, the GI50 with U251 CNS was 913 nM; in the experiment on COLO 205 colon it was 264 nM; in the experiment with BT-549 breast, 657 nM; in the experiment on K-562 leukemia, 579 nM. In addition, the TGI is 318 nM with SK-MEL-5 melanoma; 3630 nM in the experiment on T-47D breast; 5580 nM with NCI-H23 lung; 712 nM in the experiment with HL-60(TB) leukemia; 86900 nM in the experiment with SR leukemia; greater than 100000 nM with SF-295 CNS. Moreover, the TGI was greater than 100000 nM with U251 CNS, 631 nM in the experiment with COLO 205 colon, greater than 100000 nM with BT-549 breast and greater than 100000 nM in the experiment with K-562 leukemia.
Consider `Cc1cc(Nc2cc(N3CCN(C)CC3)nc(/C=C/c3ccccc3)n2)n[nH]1`, for which the GI50 is greater than 2110 nM with SK-MEL-5 melanoma; 1770 nM in the experiment with T-47D breast; 1140 nM in the experiment with NCI-H23 lung; 320 nM in the experiment with HL-60(TB) leukemia; 103 nM in the experiment on SR leukemia; 707 nM in the experiment on SF-295 CNS. Besides, the GI50 with U251 CNS is 883 nM; in the experiment with COLO 205 colon it was 440 nM; with BT-549 breast it was 1120 nM; with K-562 leukemia, 644 nM. Further, the TGI in the experiment on SK-MEL-5 melanoma was greater than 4150 nM; with T-47D breast it was greater than 9460 nM; with NCI-H23 lung, greater than 5230 nM; in the experiment on HL-60(TB) leukemia it was 2570 nM; in the experiment on SR leukemia, 2190 nM; with SF-295 CNS it was greater than 4640 nM. In addition, the TGI is greater than 6760 nM in the experiment on U251 CNS, greater than 2030 nM with COLO 205 colon, greater than 8730 nM in the experiment with BT-549 breast and greater than 10000 nM in the experiment on K-562 leukemia.
Regarding `COc1cc(C2c3cc4c(cc3C(OC(=O)C[n+]3ccccc3)C3COC(=O)C23)OCO4)cc(OC)c1OC` (configuration not stated), the GI50 with SK-MEL-5 melanoma was less than 10 nM; in the experiment on T-47D breast it was 41200 nM; in the experiment with NCI-H23 lung, less than 21.7 nM; with HL-60(TB) leukemia, less than 15.6 nM; with SR leukemia, less than 16 nM; with SF-295 CNS it was less than 16.4 nM. In addition, the GI50 in the experiment on U251 CNS is less than 21 nM; in the experiment on COLO 205 colon it was less than 13.7 nM; in the experiment on BT-549 breast it was less than 10 nM; in the experiment on K-562 leukemia it was less than 17.3 nM. Also, the TGI was less than 10 nM in the experiment on SK-MEL-5 melanoma; greater than 100000 nM in the experiment with T-47D breast; greater than 100000 nM in the experiment on NCI-H23 lung; less than 28.7 nM in the experiment on HL-60(TB) leukemia; greater than 100000 nM with SR leukemia; greater than 100000 nM with SF-295 CNS. Also, the TGI in the experiment with U251 CNS is greater than 100000 nM; in the experiment on COLO 205 colon it was less than 20.3 nM; in the experiment on BT-549 breast, greater than 100000 nM; in the experiment with K-562 leukemia it was greater than 100000 nM.
For the compound `CCCCCC/C=C\CCCCCCCCCC1=C(CN2CCN(C)CC2)C(=O)C=C(OC)C1=O`, the TGI amounted to 19300 nM in the experiment on SK-MEL-5 melanoma; 4810 nM with T-47D breast; 15400 nM in the experiment on NCI-H23 lung; 2970 nM in the experiment on HL-60(TB) leukemia; 1810 nM in the experiment on SR leukemia; 25300 nM with SF-295 CNS. Further, the TGI with U251 CNS was 15000 nM; with COLO 205 colon, 3370 nM; in the experiment on BT-549 breast it was 15500 nM; with K-562 leukemia it was 6320 nM.
Consider `O=[N+]([O-])c1cc([N+](=O)[O-])c(Nn2c3ccccc3c3ccccc32)c([N+](=O)[O-])c1`, for which the GI50 in the experiment with SK-MEL-5 melanoma was 216 nM; in the experiment with T-47D breast, 278 nM; in the experiment on NCI-H23 lung, 313 nM; in the experiment on HL-60(TB) leukemia, 227 nM; in the experiment on SR leukemia it was 232 nM; in the experiment on U251 CNS, 358 nM. Besides, the figures for the GI50 in the experiment with COLO 205 colon, with BT-549 breast and with K-562 leukemia were 195 nM, 278 nM and 297 nM, respectively. The TGI is 4530 nM and 506 nM in the experiment with SK-MEL-5 melanoma; 4550 nM and 3960 nM in the experiment on NCI-H23 lung; greater than 100000 nM with SR leukemia; 790 nM in the experiment with SF-295 CNS; greater than 100000 nM with U251 CNS; 7320 nM and 1230 nM in the experiment on BT-549 breast. This compound also gave a TGI with K-562 leukemia greater than 100000 nM.
Take `COc1ccc([C@@]23Oc4cc(OC)cc(OC)c4[C@]2(O)[C@H](O)[C@H](C(N)=O)[C@H]3c2ccccc2)cc1`: the TGI is 32.9 nM and < 13.9 nM in the experiment with SK-MEL-5 melanoma; 210 nM and 48.3 nM with T-47D breast; 76.9 nM and 15.7 nM with NCI-H23 lung; 78.5 nM with HL-60(TB) leukemia; 45.6 nM and < 10 nM in the experiment on SF-295 CNS; 612 nM and 194 nM in the experiment with U251 CNS. Further, the TGI is 28.6 nM and 11.6 nM in the experiment on COLO 205 colon; 84.7 nM and < 22.6 nM in the experiment on BT-549 breast; greater than 100000 nM in the experiment with K-562 leukemia. Moreover, the figures for the GI50 in the experiment on HL-60(TB) leukemia and in the experiment on SR leukemia were less than 10 nM and 10 nM, respectively.
